Data on 3 compounds can be found in paper PMC10367067, “A Series of Non-Oxido V^IV Complexes of Dibasic ONS Donor Ligands: Solution Stability, Chemical Transformations, Protein Interactions, and Antiproliferative Activity” (Inorganic Chemistry, 2023).

The subject of data set [1] is HT-29 (colon cancer) cells. Set-up: method as in PMID 36598160, doi:10.1002/aoc.6082. The conditions noted are these: identical experimental conditions; cited from earlier work.
Data set [2] deals with HeLa (cervical cancer) cells. Details: method as in PMID 36598160, doi:10.1002/aoc.6082. The conditions noted are these: identical experimental conditions; cited from earlier work.
Another data set in a line: Solubility observations. Format: physicochemical. The text has this:
The non-oxido vanadium(IV) complexes (1–4) were synthesized by the reaction of tridentate dibasic ONS donor dithiocarbazates H2L^1–4 with [V^IVO(acac)2] in a 2:1 molar ratio in CH3CN medium (Scheme 1). […] They are soluble in polar aprotic solvents like DMSO, DMF, DCM, THF, and CH3CN and are partially soluble in aqueous media. The solid-state characterization of all compounds was done through elemental analysis, FTIR, and also with single-crystal X-ray diffraction studies of 1–3, while the solution phase characterization was carried out through UV–vis, ESI-MS spectrometry, and EPR spectroscopy. Details of all the characterizations are described in the following sections.
(§1) EPR spectra were recorded 24 h after the dissolution of the most soluble compound, [V^IV(L^1)2] (1), in DMSO and in an aqueous solution in phosphate buffer at pH 7.4 (Figure 8). […] The spectrum in DMSO is very similar to that in CH2Cl2 (cfr. traces in Figures 6 and 8), with the coexistence of fac (1a) and mer (1b) isomers.

Data set [3] deals with HT-29 (colon cancer) cells. Nature of the data set: MTT assay, HT-29 cells. In kind it is cell-based. The conditions noted are these: for IC50: 48 h of exposure, mean ± SD; for selectivity index (SI), HT-29: NIH-3T3 vs HT-29, 48 h. How it is done: (§2) HT-29 (colon cancer), HeLa (cervical cancer), and NIH-3T3 (mouse embryonic fibroblasts) cells were maintained in DMEM supplemented with 10% FBS, penicillin–streptomycin solution in a humidified (95% humidity) CO2 incubator (5% CO2). Thereafter, cells were harvested from the logarithmic phase and seeded into a 96-well plate at a concentration of 8 × 10^4 cells per well. After overnight seeding, cells were treated with different concentrations (2.5, 5, 10, 20, and 50 μM) of the tested ligands and vanadium complexes (H2L^1–4 and 1–4) for 48 h. The compounds’ stock solutions were prepared in DMSO. DMEM was used to prepare the final working concentration of the compounds, so that the final amount of DMSO is less than 2%. The effect of the complexes on the viability of the cells was evaluated through MTT dye reduction assay by measuring the optical density at 595 nm.[93] DMSO alone, used to dissolve the complexes, was also employed for the control group treatment.
(Tetrazolium assays rely on reduction of a dye to a coloured formazan, in cell work by metabolically active cells.)

A further data set concerns HT-29 cells. Nature of the data set: Annexin V-FITC/PI apoptosis assay by flow cytometry. In kind it is cell-based. Conditions: 48 h, control 9%. How it is done: The apoptotic population induced by complexes 1 and 2 in HT-29 cells was evaluated using Annexin V-FITC Apoptosis Detection Kit (Abgenex) by a flow cytometer (BD Accuri C6 flow cytometer; BectoneDickinson).[125] HT-29 cells (3 × 10^5 cells/well) were cultured in a 6-well plate for 24 h. After the cells were adhered, different concentrations (5 and 10 μM) of the tested complexes were treated and incubated for further 48 h. Subsequently, the cells were collected by trypsinization and then suspended in 1X binding buffer. Finally, the suspension was stained with 5 μL of Annexin V and PI at room temperature and incubated for 15 min in the dark. Then, the samples were immediately analyzed under a BD Accuri C6 flow cytometer.
On the technique in general: A flow cytometer gives signals particle by particle.

Data set [4] has as its system HeLa (cervical cancer) cells. Nature of the data set: MTT assay, HeLa cells. In kind it is cell-based. The conditions noted are these: for IC50: 48 h of exposure, mean ± SD; for selectivity index (SI), HeLa: NIH-3T3 vs HeLa, 48 h. How it is done: as §2
Data set [5] relates to NIH-3T3 (mouse embryonic fibroblasts) cells. The data set can be described thus: MTT assay, NIH-3T3 normal cells. Format: cell-based. Conditions: 48 h of exposure, mean ± SD. How it is done:
as §2

A short description of data set [6]: Solution stability (ESI-MS, EPR). Format: physicochemical. How it is done: The stability of all complexes was established in water containing solvents through UV–vis, ESI mass spectrometry, and NMR and EPR spectroscopy.
The aged solutions in MeOH/H2O 90/10 (v/v) were diluted in CH3CN and analyzed by ESI-MS (concentration 50 μM). For all complexes, the most important species remained those detected at t = 0 h, i.e., the non-oxido V^IV complexes [V^IV(L^1–4)2]; the V^V species [V^V(L^1–4)2]^+, derived from the oxidation of the previous one, and [V^VO2(L^1–4)]^− were also detected. At these experimental conditions, the non-oxido V^IV complexes seem to be stable after 24 h with a slight increase in the oxidation process, as indicated by the increment of the relative amount of […] (Figure S14). […] This was considered during the docking studies.
as §1

A further data set concerns the target T1, BSA (Bos taurus, UniProt P02769).
T1 construct: purchased Sigma-Aldrich
The data set can be described thus: Fluorescence quenching titration of BSA with the complexes. The conditions noted are these: room temperature. In kind it is binding, bovine. How it is done:
The interaction between complexes 1–4 and BSA was studied using fluorescence quenching spectroscopy on a PerkinElmer LS 55 instrument. The instrumental response was corrected by means of a correction function provided by the manufacturer. The fluorescence experiments were carried out at room temperature and are steady-state measurements. Electronic absorption spectra were measured on a PerkinElmer Lambda35.
Fatty acid free BSA stock solution was prepared in PBS buffer (10 mM, pH 7.4), and the concentration was determined spectrophotometrically considering the extinction coefficient 44,309 M^–1 cm^–1 at 280 nm.[107] Stock solutions of the complexes (ca. 8 × 10^–4 M) were prepared in DMSO and further diluted (1:10) immediately before running the experiments. […] Fluorescence emission spectra were measured at room temperature with λex = 295 nm between 310 and 500 nm. Fluorescence spectra containing the same amount of complex but no BSA were recorded and subtracted from each corresponding emission spectrum of the mixtures. […] UV–vis spectra were measured for each solution, and the absorbance at excitation and emission wavelengths were used to make corrections for inner filter effects and reabsorption.[108],[109]
The Stern–Volmer equation was used to fit the fluorescence quenching data[109] […]

Read-outs that look alike come from different tables or passages of the source.

T1 sequence (P02769 25-607): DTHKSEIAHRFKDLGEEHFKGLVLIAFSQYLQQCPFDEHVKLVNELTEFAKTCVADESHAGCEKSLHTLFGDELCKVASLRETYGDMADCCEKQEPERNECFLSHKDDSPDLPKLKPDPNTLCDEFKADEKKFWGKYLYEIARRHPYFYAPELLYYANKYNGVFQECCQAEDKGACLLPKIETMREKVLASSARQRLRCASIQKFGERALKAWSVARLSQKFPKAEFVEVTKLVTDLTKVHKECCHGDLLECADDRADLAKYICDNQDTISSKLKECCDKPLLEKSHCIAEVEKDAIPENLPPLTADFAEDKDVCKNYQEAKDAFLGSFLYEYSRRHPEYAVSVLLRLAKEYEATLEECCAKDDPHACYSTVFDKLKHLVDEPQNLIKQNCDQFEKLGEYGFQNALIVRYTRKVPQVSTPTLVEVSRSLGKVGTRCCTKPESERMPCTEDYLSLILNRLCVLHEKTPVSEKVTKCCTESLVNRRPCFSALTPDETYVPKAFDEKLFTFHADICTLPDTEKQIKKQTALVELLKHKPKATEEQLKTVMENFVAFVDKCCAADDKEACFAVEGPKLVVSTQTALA

Usually IC50 stands for the concentration at which inhibition is half-maximal. With `N.N.[Cl][Pt][Cl]` [cisplatin], the results for the IC50 in [1] and in data set [2] were 32.7 ± 0.6 µM and 25.5 ± 0.8 µM, respectively.

As to `CCN(CC)c1ccc2c(c1)[O][V]1([O]c3cc(N(CC)CC)ccc3C=NN=C(SC)[S]1)[S]C(SC)=NN=C2` (centres unmarked) [complex 1, [V^IV(L^1)2]], the “behaviour in minimum essential medium (MEM, no FBS)” value in “Solubility observations” (MEM instead of water) was “precipitation was evident from the beginning”. Moreover, the “solubility in phosphate buffer” value in the data set “Solubility observations” (pH 7.4) is recorded as “not completely soluble”. Also, the IC50 was determined as 7.2 ± 0.6 µM in [3], 9.3 ± 0.2 µM in data set [4] and 8.7 ± 1.1 µM in data set [5]. Moreover, the “selectivity index (SI), HT-29” value in [3] is given as 1.2. The “apoptotic cells (sum of early and late apoptosis)” value was determined as 15.8% with HT-29 cells (5 μM) and 48.8% in the data set on HT-29 cells (10 μM). Further, the “selectivity index (SI), HeLa” value in data set [4] turned out to be 0.9. In data set [6] (DMSO, after 24 h), the “stability by EPR in DMSO” value is given as “the pattern remains substantially unaltered, even though a significant decrease in the spectral intensity is detected”. In data set [6] (phosphate buffer pH 7.4, after 24 h), the “stability by EPR in aqueous solution” value is “the resonances of [V^IV(L^1)2] are clearly visible”. Moreover, at BSA (PBS pH 7.4), the “n (equivalent binding sites of BSA)” value is 0.89. For the same compound, the “KBC (binding constant)” value at BSA (PBS pH 7.4, from double logarithm plot) is 2.6 × 10^4.

With `CCN(CC)c1ccc(/C=N/NC(=S)SC)c(O)c1` [H2L^1], the IC50 in [3] (Homo sapiens, HT-29) was 14.7 ± 0.6 µM; in [4] (Homo sapiens, HeLa) it was 15.7 ± 1.9 µM; in [5] (Mus musculus, NIH3T3), 23.5 ± 0.6 µM. In addition, in [3], the “selectivity index (SI), HT-29” value turned out to be 1.6. The “selectivity index (SI), HeLa” value in data set [4] was found to be 1.5.
